One compound from ChEMBL document CHEMBL1121420, “Preparation and antitumor activity of olivomycin A analogues” (1980) can be followed below.

Assay [1] deals with Mus musculus. Kind of assay: Average change in weight is tested in mice at a dose of 8 mg/kg; Toxic. In kind it is functional, organism-based. Also on record: dose 8 mg/kg.
Assay [2] concerns P388. Kind of assay: Tested on P-388 Leukemia for median survival time treated to median survival time control when administered intraperitoneally at a dose of 1 mg/kg. The assay is classed as functional, Mus musculus. The following applies: route intraperitoneal.
In assay [3] the test system is Mus musculus. Kind of assay: Average change in weight is tested in mice at a dose of 4 mg/kg. In kind it is functional. Also on record: unit not given here.
Assay [4] concerns P388. In words: Tested on P-388 Leukemia for median survival time treated to median survival time control when administered intraperitoneally at a dose of 8 mg/kg; Toxic. The following applies: Mus musculus. In kind it is functional, organism-based. Also on record: dose 8 mg/kg.
For assay [5], the system named is P388. Kind of assay: Tested on P-388 Leukemia for median survival time treated to median survival time control when administered intraperitoneally at a dose of 2 mg/kg. The following applies: route intraperitoneal. In kind it is functional, Mus musculus.
Assay [6] relates to Mus musculus. In words: Average change in weight is tested in mice at a dose of 2 mg/kg. In kind it is functional. The arrangement: unit not given here.
Assay [7] relates to Mus musculus. In words: Average change in weight is tested in mice at a dose of 1 mg/kg. In kind it is functional. Also on record: unit not given here.
Assay [8] deals with P388. In words: Tested on P-388 Leukemia for median survival time treated to median survival time control when administered intraperitoneally at a dose of 4 mg/kg. In kind it is functional, Mus musculus. The following applies: route intraperitoneal.

A word on the T/C: it is the ratio of treated to control.

As to `C/N=C(\C(O)C(C)O)C(OC)C1Cc2cc3cc(OC4CC(OC(C)=O)C(OC5CC(O)C(OC)C(C)O5)C(C)O4)cc(O)c3c(O)c2C(=O)C1OC1CC(OC2CC(OC3CC(C)(O)C(OC(=O)C(C)C)C(C)O3)C(O)C(C)O2)C(O)C(C)O1` (stereo not drawn), the Activity result in assay [1] was “Toxic”; in assay [3], 2.4; in assay [6] it was 0.1; in assay [7] it was 1.1. Also, the T/C is 122% in assay [2], “Toxic” in assay [4], 140% in assay [5] and 155% in assay [8].
